Values quoted from earlier work, collected in patent US6673767B1, “Gel composition and methods” (Alza Corporation, priority 1996, dated 2004).

Conditions: for Water Miscibility: solvent in water (Merck)

Row | Water Miscibility | reported solubility in water (solvent in water) | SMILES
1 | insol. in water (Merck) | – | O=C(OCc1ccccc1)c1ccccc1 [Benzyl Benzoate, benzyl benzoate]
2 | misc. with water (Merck) | – | CN1CCCC1=O [NMP, N-methyl-2-pyrrolidone]
3 | 7% sol. in water (Merck) | 7.17 grams in 100 ml of water | CC(=O)OCC(COC(C)=O)OC(C)=O [Triacetin, triacetin]
